From PMC7356228, “Alvaxanthone, a Thymidylate Synthase Inhibitor with Nematocidal and Tumoricidal Activities” (Molecules, 2020)
Where two headings read alike, the source gives them in different places.

Key:
CeTS = molecular target: T1, CeTS (Caenorhabditis elegans, UniProt Q9Y052); assay: Inhibition of TS-catalyzed reaction (tritium release from [5-3H]dUMP); type: biochemical, C. elegans; settings: 20 µM dUMP, 250 µM meTHF
T1 sequence (Q9Y052 1-315): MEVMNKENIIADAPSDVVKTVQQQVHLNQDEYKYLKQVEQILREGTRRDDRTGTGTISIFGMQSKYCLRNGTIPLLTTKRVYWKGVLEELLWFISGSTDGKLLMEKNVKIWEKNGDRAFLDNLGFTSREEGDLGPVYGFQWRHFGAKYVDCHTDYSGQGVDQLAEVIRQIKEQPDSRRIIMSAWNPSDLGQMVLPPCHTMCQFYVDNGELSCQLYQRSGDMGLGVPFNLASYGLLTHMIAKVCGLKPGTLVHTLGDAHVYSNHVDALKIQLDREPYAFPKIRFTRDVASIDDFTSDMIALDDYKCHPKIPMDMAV
From the text: (§1) The recombinant human, rat, mouse, T. spiralis and C. elegans TS proteins were produced, purified and separated into phosphorylated and non-phosphorylated fraction, as previously described. TS activity was monitored, following tritium release from [5-^3H]dUMP, and its inhibition studied as earlier reported.

[1] = tested on: U-118 MG human glioblastoma cells; assay: Cytotoxicity, neutral red uptake (NR) assay; type: cell-based; settings: U-118 MG
Experimental: (§2) Biological effect of alvaxanthone and rheediaxanthone B on normal (BJ) and cancer cells (U-118 MG and SCC-15) was estimated using two viability assays, the neutral red uptake (NR) and tetrazolium salts reduction (XTT) assays.
(§3) Human glioblastoma cells U-118 MG (ATCC® HTB-15), human squamous carcinoma cells SCC-15 (ATCC® CRL-1623), and normal human skin fibroblasts (ATCC® CRL-2522) were grown, their morphology checked, and number and viability estimated as earlier presented.
(§4) Influence of selected compounds on cells was tested by performing the cytotoxicity (NR and XTT) assays, proliferation assay, cell adhesion assay, cell migration assay, determination of intracellular ATP level, and apoptosis assay as previously reported.

[2] = tested on: SCC-15 human squamous carcinoma cells; assay: Cytotoxicity, neutral red uptake (NR) assay; type: cell-based; settings: for IC50: read-out: IC50
Experimental: as §2, §3, §4

[3] = tested on: normal human gingival fibroblasts (HGF); set-up: method as in Hou et al. [41]; settings: 24 h incubation; ref Hou et al. [41]; cited from earlier work
[4] = tested on: BJ, U-118 MG and SCC-15 cells; assay: NR assay, summary over the three cell lines; type: cell-based, human; settings: 48 h, span over BJ
Experimental: as §2
Thus, alvaxanthone may be damaging mitochondria and impairing their metabolism exerting one of possible mechanisms active in destroying cancer cells. Changes of cell morphology in dependence on increasing alvaxanthone and rheediaxanthone B concentration were also recorded. While the glioma and squamous carcinoma cells formed clusters, lost their adhesion, shrank, and accumulated less NR dye, normal fibroblasts preserved rather normal shapes but the amount of the neutral red dye and confluence of cells decreased. In addition, a lower number of BJ cells was detected (Figure 1B).
as §4

U-118 MG cells [5] = assay: Cell adhesion, crystal violet assay; type: cell-based, human; settings: 48-h treatment
Experimental: (§5) Cancer metastasis, resulting from an impairment of adhesion between cancer cells and the extracellular matrix may cause cell migration from a primary tumor into distant parts of an organism. The cristal violet assay was used to examine alvaxanthone and rheediaxanthone B ability to influence cellular adhesion.
(§6) Figure 3 Influence of alvaxanthone or rheediaxanthone B on BJ, U-118 MG, and SCC-15 cells adhesion after 48-h treatment. The crystal violet assay was used. Results are medians of triplicate assays of three independent experiments expressed as a % of non-treated controls. The whiskers are lower (25%) and upper (75%) quartile ranges. * p ≤ 0.05, Kruskal–Wallis test (against non-treated control).
as §4

BJ cells [6] = assay: Cell adhesion, crystal violet assay; type: cell-based, human; settings: 48-h treatment
Experimental: as §5, §6, §4

SCC-15 cells [7] = assay: Cell adhesion, crystal violet assay; type: cell-based, human; settings: 48-h treatment
Experimental: as §5, §6, §4

[8] = tested on: human oral squamous carcinoma cells (HSC-2 cell line); set-up: method as in Hou et al. [41]; settings: 24 h incubation; ref Hou et al. [41]; cited from earlier work
U-118 MG cells [9] = assay: Intracellular ATP level (CellTiterGlo); type: cell-based, human; settings: 48-h incubation, glioma cells
Experimental: (§7) Figure 4 Changes of caspase-3/7 activities and intracellular ATP level in BJ, U-118 MG, and SCC-15 cells after 48-h incubation with 5–40 µM alvaxanthone or rheediaxanthone B. Median results are presented of three independent experiments, each performed in triplicate. The whiskers are lower (25%) and upper (75%) quartile ranges.
(§8) On the other hand, rheediaxanthone B caused a reduction of ATP level down to around 30% in glioma cells and fibroblasts, and to 20% in squamous carcinoma cells (Figure 4). In general, with increasing Caspase-3/7 activity the ATP level was decreasing, in accord with the results of Reference.
as §4

BJ cells [10] = assay: Intracellular ATP level (CellTiterGlo); type: cell-based, human; settings: 48-h incubation, normal fibroblasts
Experimental: as §7, §8, §4

SCC-15 cells [11] = assay: Intracellular ATP level (CellTiterGlo); type: cell-based, human; settings: 48-h incubation, SCC-15
Experimental: as §7, §8, §4

TsTS = TsTS (Trichinella spiralis, UniProt Q9NDD3); assay: Inhibition of TS-catalyzed reaction (tritium release from [5-3H]dUMP); type: biochemical, T. spiralis; settings: for remaining activity at 10 µM: compound 10 µM; for remaining activity at 10 µM / remaining activity at 100 µM: 20 µM dUMP; for remaining activity at 100 µM: compound 100 µM
From the text: as §1

[12] = Cytotoxicity, neutral red uptake (NR) assay; type: cell-based, human; settings: human, BJ normal skin fibroblasts; NR assay, 40 µM, 48 h, fibroblasts
Experimental: as §2, §3, §4

[13] = tested on: BJ normal human skin fibroblasts; assay: Cytotoxicity, neutral red uptake (NR) assay; type: cell-based; settings: Homo sapiens, Skin fibroblast; neutral red assay, BJ; read-out: IC50
Experimental: as §2, §3, §4

C. elegans = assay: Toxicity to C. elegans (population growth); settings: Caenorhabditis elegans, read-out: LC50 (reduction of growth of the nematode population)
Experimental: C. elegans was maintained as previously described. The effect of the compounds studied on C. elegans population growth was determined as earlier presented.

TsTS, sequence (Q9NDD3 entry or part of it): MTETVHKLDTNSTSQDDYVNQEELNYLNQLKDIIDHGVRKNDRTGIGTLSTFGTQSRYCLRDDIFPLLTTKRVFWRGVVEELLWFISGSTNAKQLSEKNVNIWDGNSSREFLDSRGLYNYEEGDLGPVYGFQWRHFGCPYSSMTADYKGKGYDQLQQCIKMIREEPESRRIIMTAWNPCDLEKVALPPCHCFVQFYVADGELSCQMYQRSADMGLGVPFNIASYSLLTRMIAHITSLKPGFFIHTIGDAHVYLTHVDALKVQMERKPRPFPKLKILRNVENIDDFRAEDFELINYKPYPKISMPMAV

C=CC(C)(C)c1c(O)cc2oc3c(O)c(O)cc(CC=C(C)C)c3c(=O)c2c1O [Alvaxanthone (15), Alvaxanthone]
remaining activity at 10 µM (CeTS; compound 10 µM): 85% | remaining activity at 100 µM (CeTS; compound 100 µM, read-out: % Remaining Activity): 18% | viability at 40 µM ([1]; NR assay, 40 µM, 48 h): 10% | IC50 ([1]; neutral red assay, read-out: IC50): 13.1 µM | viability at 40 µM ([2]; Homo sapiens, NR assay, 40 µM, 48 h): 1.5% | IC50 ([2]; Homo sapiens, SCC-15, neutral red assay): 17 µM | IC50 ([2]; neutral red assay): 17.7 µM | IC50 [3]: 25 µM | IC50 ([4]; Homo sapiens): > 15 µM | IC50 [4]: < 18 µM | concentration at which reduction of adhesion is significant/apparent (U-118 MG cells [5]): 40 µM | concentration at which reduction of adhesion is significant/apparent (BJ cells [6]): 20 µM | concentration at which reduction of adhesion is significant/apparent (SCC-15 cells [7]): 20 µM | IC50 [8]: 22 µM | change of ATP level (U-118 MG cells [9]): unaltered | change of ATP level (BJ cells [10]): slight decrease | change of ATP level (SCC-15 cells [11]): dramatically reduced | IC50 (TsTS; IC50, 20 µM dUMP and 50 µM meTHF, mean ± S.E.M. (N=3) for alvaxanthone, rheediaxanthone B not repeated): 41.9 ± 8.1 µM | remaining activity at 10 µM (TsTS; 50 µM meTHF): 97% | remaining activity at 10 µM (TsTS; 250 µM meTHF): 98% | remaining activity at 100 µM (TsTS; 50 µM meTHF): 14% | remaining activity at 100 µM (TsTS; 250 µM meTHF): 47% | viability at 48 h, 40 µM [12]: 35% | IC50 [13]: 15.8 µM | LC50 (C. elegans): 4.6 ± 0.57 µM
